Values joined by “and” are separate entries in the source; they are usually repeats but may differ in a detail not shown here. Equal values may be shown once.
What was measured:
[1] = test system: H69 human lung carcinoma xenograft; assay: Tumor-site tissue platinum concentrations and PK parameters by ICP-MS in H69 xenograft mice; format: in vivo, female athymic nude mice;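 for Individual Tumor-Site Tissue Platinum Concentrations: unit μg/g tissue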;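 for Mean Tumor-Site Tissue Platinum Concentrations: unit μg/g tissue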
Protocol: (§1) A total of 130 female athymic nude mice bearing the H69 human lung carcinoma xenograft were assigned to 10 treatment groups. Group 1 (N=5 females) served as the no treatment control. All intratumoral (IT) injections were delivered as single 25 μL injections. […] The maximum concentration of cisplatin solution and LSAM-Cisplatin suspension is 1 mg/mL and 10 mg/mL, respectively. The IT maximum feasible dose (MFD) for cisplatin solution is 25 μg and 250 μg for LSAM-Cisplatin suspension. Group 2 (N=10 females) was administered 47.5% ethanol/47.5% glycerin/5% water IT on Study Days 1 and 16 and served as control. Group 3 (N=20 females) received 133 μg cisplatin intraperitoneal (IP), considered the standard of care (SOC), once weekly for 3 cycles (Days 1, 8, and 15. Group 4 (N=5) was administered a single 125 μg large surface area microparticle (LSAM)-Cisplatin IT injection on Day 1. Group 5 (N=5 females) received a single 187.5 μg LSAM-Cisplatin IT injection on Day 1. Group 6 (N=5 females) was administered a single 250 μg LSAM-Cisplatin IT injection on Day 1. Group 7 (N=20 females) received single 25 μg cisplatin IT injections on Days 1 and 16. Group 8 (N=20 females) received single 125 μg LSAM-Cisplatin IT injections on Days 1 and 16. Group 9 (N=20 females) received single 187.5 μg LSAM-Cisplatin IT injections on Days 1 and 16. Group 10 (N=20 females) received single 250 μg LSAM-Cisplatin IT injections on Days 1 and 16. One hour postdose on Day 1, blood and tumor tissue were collected for determination of platinum concentrations from 3 Group 2 females and 5 females from Groups 3 and 7-10. On Days 8, 16 (predose) and 28, blood and tumor tissue were collected for determination of platinum concentrations from 5 females/Study Day from Groups 3 and 7-10. Total platinum concentrations in blood and tumor tissues were determined by inductively coupled plasma mass spectrometry (ICP-MS).
The LSAM-Cisplatin pharmacology study was conducted to: • Quantitate platinum content in whole blood and tumors to animals administered cisplatin IP (standard of care, SOC), the MFD of IT cisplatin, and IT LSAM- Cisplatin at the maximum feasible dose (MFD) and two lower doses • Evaluate tumor response • Evaluate increased doses of IT LSAM-Cisplatin up to 2X systemic maximum tolerated dose (MTD) • Evaluate one vs two injections • Evaluate recurrences if tumors regressed
Blood and tumor-site tissue were collected from each treatment group according to Table 4.
(§2) All blood and tumor-site tissue platinum concentrations that were reported as BLQ were considered as zero for statistical purposes. Mean and standard deviation are the only statistics reported for blood and tumor-site tissue platinum concentrations and platinum blood to tumor tissue ratios. Composite maximum observed concentration (Cmax), time of Cmax (Tmax), and area under the concentration-time curve (AUC) values for platinum in blood and tumor tissue following single and repeated administration of cisplatin or LSAM-Cisplatin are reported.

[2] = Platinum blood to tumor-site tissue concentration ratios in H69 xenograft mice; format: in vivo, female athymic nude mice; conditions: for Individual platinum blood to tumor-site tissue concentration ratio: individual animals
Protocol: as §1, §2
Platinum Cmax, Tmax, and AUC values for single-dose blood and tumor-site tissue data are provided in Table 8 and Table 9, respectively. Platinum Cmax, Tmax, and AUC values for multi-dose blood and tumor-site tissue data are provided in Table 10 and Table 11, respectively. Mean single-dose blood platinum concentrations are plotted in FIG. 20. Mean single-dose tumor-site tissue platinum concentrations are plotted in FIG. 21. Mean multiple-dose blood platinum concentration data are plotted in FIG. 22. Mean multiple-dose tumor-site tissue platinum concentration data are plotted in FIG. 23.

[3] = multiple doses, 6 mg/kg IP on Days 1, 8, and 15
[4] = multiple doses, ~1.1 mg/kg IT on Days 1 and 16
[5] = single dose Day 1, ~1.1 mg/kg IT

N.N.[Cl][Pt][Cl] [Cisplatin]
Individual Tumor-Site Tissue Platinum Concentrations ([1]; Group 3: 6 mg/kg IP on Days 1, 8, 15, Day 16, 6 mg/kg): 0.753 µg/g and 1.17 µg/g and 1.27 µg/g and 2.62 µg/g and 1.12 µg/g | Mean Tumor-Site Tissue Platinum Concentrations ([1]; Group 3: 6 mg/kg IP on Days 1, 8, 15, Day 28): 0.459 µg/g | Individual Tumor-Site Tissue Platinum Concentrations ([1]; Group 3: 6 mg/kg IP on Days 1, 8, 15, Day 28, 6 mg/kg): BLQ (below the limit of quantitation (<0.650 μg/g) and treated as zero for statistical purposes) (3×) and 0.933 μg/g and 1.36 μg/g | Mean Tumor-Site Tissue Platinum Concentrations ([1]; Group 7: 1.1 mg/kg IT on Days 1 and 16, Day 1 (1 hour postdose)): 11.3 µg/g | Individual Tumor-Site Tissue Platinum Concentrations ([1]; Group 7: 1.1 mg/kg IT on Days 1 and 16, Day 1 (1 hour postdose), 1.1 mg/kg): 14.4 µg/g and 13.2 µg/g and 9.66 µg/g and 8.68 µg/g and 10.4 µg/g | Mean Tumor-Site Tissue Platinum Concentrations ([1]; Group 7: 1.1 mg/kg IT on Days 1 and 16, Day 8): 3.23 µg/g | Individual Tumor-Site Tissue Platinum Concentrations ([1]; Group 7: 1.1 mg/kg IT on Days 1 and 16, Day 8, 1.1 mg/kg): 3.06 µg/g and 4.74 µg/g and 4.29 µg/g and 3.02 µg/g and 1.06 µg/g | Mean Tumor-Site Tissue Platinum Concentrations ([1]; Group 7: 1.1 mg/kg IT on Days 1 and 16, Day 16 (predose)): 2.97 µg/g | Individual Tumor-Site Tissue Platinum Concentrations ([1]; Group 7: 1.1 mg/kg IT on Days 1 and 16, Day 16 (predose), 1.1 mg/kg): 1.90 μg/g and 2.42 μg/g and 7.79 μg/g and 2.76 μg/g and BLQ (below the limit of quantitation (<0.650 μg/g) and treated as zero for statistical purposes) | Mean Tumor-Site Tissue Platinum Concentrations ([1]; Group 7: 1.1 mg/kg IT on Days 1 and 16, Day 28): 9.11 µg/g | Individual Tumor-Site Tissue Platinum Concentrations ([1]; Group 7: 1.1 mg/kg IT on Days 1 and 16, Day 28, 1.1 mg/kg): 20.2 µg/g and 8.89 µg/g and 6.35 µg/g and 7.97 µg/g and 2.16 µg/g | Tumor-Site Tissue Platinum AUC0-t [1, 3]: 470 µg·h/g | Tumor-Site Tissue Platinum Tmax [1, 3]: 384 h | Tumor-Site Tissue Platinum AUC0-t [1, 4]: 3,728 μg · hr/g | Tumor-Site Tissue Platinum Tmax [1, 4]: 1 h | Tumor-Site Tissue Platinum AUC0-192 ([1]; single dose Day 1, 6 mg/kg IP): 70.5 µg·h/g | Tumor-Site Tissue Platinum Tmax ([1]; single dose Day 1, 6 mg/kg IP): 1 h | Tumor-Site Tissue Platinum AUC0-192 [1, 5]: 1,393 μg · hr/g | Tumor-Site Tissue Platinum AUC0-384 [1, 5]: 1,988 μg · hr/g | Tumor-Site Tissue Platinum Tmax [1, 5]: 1 h | mean Day 28 tumor-site tissue platinum concentrations, IT versus IP ([1]; ~1.1 mg/kg IT Days 1 and 16 versus 6 mg/kg IP Days 1, 8, 15): greater than following IP administration | Individual platinum blood to tumor-site tissue concentration ratio ([2]; Group 3, 6 mg/kg cisplatin IP on Days 1, 8, and 15, sampling Day 1): 1.084 and 0.775 and 0.134 and 0.994 | Mean platinum blood to tumor-site tissue concentration ratio ([2]; Group 3, 6 mg/kg cisplatin IP on Days 1, 8, and 15, sampling Day 1, N=4): 0.747 | Individual platinum blood to tumor-site tissue concentration ratio ([2]; Group 3, 6 mg/kg cisplatin IP on Days 1, 8, and 15, sampling Day 16): 1.174 and 1.120 and 1.000 and 0.424 and 1.188 | Mean platinum blood to tumor-site tissue concentration ratio ([2]; Group 3, 6 mg/kg cisplatin IP on Days 1, 8, and 15, sampling Day 16, N=5): 0.981 | Individual platinum blood to tumor-site tissue concentration ratio ([2]; Group 3, 6 mg/kg cisplatin IP on Days 1, 8, and 15, sampling Day 28): 0.506 and 0.267 | Mean platinum blood to tumor-site tissue concentration ratio ([2]; Group 3, 6 mg/kg cisplatin IP on Days 1, 8, and 15, sampling Day 28, N=2): 0.386 | Individual platinum blood to tumor-site tissue concentration ratio ([2]; Group 7, ~1.1 mg/kg cisplatin IT on Days 1 and 16, sampling Day 1, 1.1 mg/kg): 0.011 and 0.018 and 0.019 and 0.022 and 0.016 | Mean platinum blood to tumor-site tissue concentration ratio ([2]; Group 7, ~1.1 mg/kg cisplatin IT on Days 1 and 16, sampling Day 1, N=5): 0.017 | Individual platinum blood to tumor-site tissue concentration ratio ([2]; Group 7, ~1.1 mg/kg cisplatin IT on Days 1 and 16, sampling Day 8, 1.1 mg/kg): 0.023 and 0.000 and 0.020 and 0.026 and 0.053 | Mean platinum blood to tumor-site tissue concentration ratio ([2]; Group 7, ~1.1 mg/kg cisplatin IT on Days 1 and 16, sampling Day 8, N=5): 0.024 | Individual platinum blood to tumor-site tissue concentration ratio ([2]; Group 7, ~1.1 mg/kg cisplatin IT on Days 1 and 16, sampling Day 16, 1.1 mg/kg): 0.000 (3×) and 0.023 | Mean platinum blood to tumor-site tissue concentration ratio ([2]; Group 7, ~1.1 mg/kg cisplatin IT on Days 1 and 16, sampling Day 16, N=4): 0.006 | Individual platinum blood to tumor-site tissue concentration ratio ([2]; Group 7, ~1.1 mg/kg cisplatin IT on Days 1 and 16, sampling Day 28, 1.1 mg/kg): 0.003 and 0.008 and 0.009 and 0.007 and 0.025 | Mean platinum blood to tumor-site tissue concentration ratio ([2]; Group 7, ~1.1 mg/kg cisplatin IT on Days 1 and 16, sampling Day 28, N=5): 0.010 | systemic exposure to platinum based on mean blood to tumor-site tissue ratios ([2]; repeated IT administration of 1.1 mg/kg): negligible

Reference: patent publication US20240156861A1, “Cisplatin particles and uses thereof” (CRITITECH, INC., priority 2022, published 2024)
